In PubChem BioAssay AID179 (DTP/NCI, 2004):
“And” between values parts separate entries of the source, which are not always exact repeats. Equal entries are not always repeated. The source made the active and inactive calls.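 The calls were made as follows: active = compounds giving half or more protection of infected cells from virus-caused growth loss, again on retest; inactive = the rest.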

Test system: CEM cells HIV-1 protection, formazan growth assay
Assay: NCI AIDS Antiviral Assay
Conditions: for IC50: measured here: growth of uninfected CEM cells
Outline: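 Screen of anti-HIV-1 activity in human CEM cells using a formazan-based growth measurement at five drug concentrations. Hits with 50% or greater protection were repeated, and confirmation required reproducible complete protection.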

| Compound | EC50 | IC50 | outcome |
| --- | --- | --- | --- |
| CCC1=CCN(c2cc(C)ccn2)OC1c1ccc(OC)cc1 (configuration not stated) | > 32.4 µM | > 32.4 µM | – |
| CC1=CP(=O)(c2ccccc2)CC1 (configuration not stated) (tested in a mixture with another compound) | > 646 µM | > 646 µM | – |
| CCOc1ccc(/C=C/C(=O)c2ccccc2)cc1 | > 200 µM | 34.7 µM | – |
| CNC(=S)NNC1=NCCCCN1 | > 200 µM | 110 µM | – |
| CCOC(=O)C(N)CSSCC(N)C(=O)OCC (configuration not stated) | > 200 µM | > 200 µM | – |
| CN=C(Nc1cccc(C(F)(F)F)c1)SCc1ccc(N=C=S)cc1 | – | – | inactive |
| COc1cc(CCCC(O)COc2cccc3c2C2(O)CCCCCC32)cc(OC)c1 (configuration not stated) | > 200 µM | 12.6 µM | – |
| Cc1c(C(=O)Nc2ccc(Cl)cc2)nc(N)nc1-c1cccc(Cl)c1 | > 174 µM | > 174 µM | – |
| O=c1nc(/C=C/c2ccccc2Cl)cc2n1CCN2CCO | – | – | inactive |
| O=c1[nH]c2cc([N+](=O)[O-])ccc2nc1/C=C(\O)c1ccc(Cl)cc1 | > 100 µM | 87.1 µM | – |
| O=C1OC[C@H](Cc2ccccc2)N1C(=O)[C@H]1NC(=S)OC1Cc1ccc(OCc2ccccc2)cc1 (some centres not stated) | – | – | inactive |
| O=C(NCCN(CCNC(=O)c1cccc(=O)n1O)CCN(CCNC(=O)c1cccc(=O)n1O)CCNC(=O)c1cccc(=O)n1O)c1cccc(=O)n1O | > 200 µM | > 200 µM | – |
| C[C@]12C[C@H](c3ccccc3)Nc3ccccc3N1C(c1ccccc1)=NO2 | > 200 µM | 36.3 µM | – |
| Cc1ccc(S(=O)(=O)N2CCCSCCN(S(=O)(=O)c3ccc(C)cc3)CCCSCC2)cc1 | > 34.7 µM | > 34.7 µM | – |
| C=CC(C)(C)c1c(OC)oc2ccc(OC)c(C)c2c1=O | > 200 µM | 38.9 µM | – |
| CCOC(=O)C(=CNC(=S)N=Nc1c(O)[nH]c2ccccc12)C(=O)OCC | > 200 µM | 70.8 µM | – |
| C[C@]12CCC3[C@@H](CC[C@@H]4c5nonc5CC[C@]34C)C1CCC(=O)N2 (some centres not stated) | > 97.7 µM | > 97.7 µM | – |
| Nc1ccc(/C=C/c2ccnc3ccccc23)c(N)c1 | 0.0631 µM | 79.4 µM | – |
| C=CC(C)(CC/C=C(\C)CCC=C(C)C)c1cc(O)c(O)c(-c2cc(C(C)(C=C)CC/C=C(\C)CCC=C(C)C)cc(O)c2O)c1 (configuration not stated) | > 5.75 µM | > 5.75 µM | – |
| CCC(=O)N(c1ccccc1)C(C)CN1CCC(O)(c2cccc(C(F)(F)F)c2)CC1 (configuration not stated) | > 200 µM | 74.1 µM | – |
| CC(C)(C)OC(=O)NCCCCC(NC(=O)OCc1ccccc1)C(N)=O (configuration not stated) | > 200 µM | > 200 µM | – |
| O=[N+]([O-])c1ccc(C[P+](c2ccccc2)(c2ccccc2)c2ccccc2)cc1 | > 200 µM | 87.1 µM and 40.7 µM | – |

| Compound | EC50 | IC50 | outcome |
| --- | --- | --- | --- |
| CCCCSc1cc(Cc2cc(C)ccc2O)c(O)c(Cc2cc(C)ccc2O)c1 | > 200 µM | 10 µM | – |
| O=C(Nc1nc(C23CC4CC(CC(C4)C2)C3)cs1)c1cc2cc([N+](=O)[O-])ccc2oc1=O | > 200 µM | 178 µM | – |
| COC(=O)c1cc(Cc2cc(Br)c(OC)c(C(=O)OC)c2)cc(Br)c1OC | > 200 µM | 162 µM | – |
| COc1ccc2c(c1)CCCN2S(=O)(=O)c1ccccc1[N+](=O)[O-] | > 200 µM | 21.4 µM | – |
| O=C(/C=C/c1ccc(Cl)c(Cl)c1)c1ccc2ccccc2c1 | > 11.5 µM | > 11.5 µM | – |
| COC(=O)CN(CC(=O)NCCNC(=O)OC(C)(C)C)C1CCCCC1N(CC(=O)OC)CC(=O)OC (configuration not stated) | > 200 µM | > 200 µM | – |
| COCOc1cc(OCOC)cc(C(=O)Oc2ccccc2)c1 | > 200 µM | > 200 µM | – |
| O=P(O)(O)CCCNO | > 200 µM | > 200 µM | – |
| CC(C)(C)COC(=O)NC1CCC2CCCCC2C1 (configuration not stated) | > 200 µM | > 200 µM | – |
| NCC=C1C2CC3CC(C2)CC1C3 | – | – | inactive |
| O=C(CCl)Nc1cccc2ccccc12 | > 200 µM | 3.24 µM | – |
| CC(=O)Oc1ccc(-c2oc3c([C@H]4C=C(C)CC(c5ccc(OC(C)=O)cc5OC(C)=O)[C@@H]4C(=O)c4ccc(OC(C)=O)c(CC=C(C)C)c4O)c(OC(C)=O)cc(O)c3c(=O)c2CC=C(C)C)c(OC(C)=O)c1 (some centres not stated) | > 5.13 µM | > 5.13 µM | – |
| c1ccc(Cc2nc(Cc3n[nH]c(Cc4ccccc4)n3)n[nH]2)cc1 | > 200 µM | > 200 µM | – |
| CCC1=NC(C(F)(F)F)(C(F)(F)F)N=C(/N=C(/N)N(C)C(C(C)C)P(=O)(OC(C)C)OC(C)C)O1 (configuration not stated) | > 200 µM | > 200 µM | – |
| C=C1c2nc3ccccc3n2C=C(c2ccccc2)N1c1ccc(C)cc1 | > 200 µM | 28.2 µM | – |
| NS(=O)(=O)c1nn2c(Br)c(-c3ccccc3)nc2s1 | > 200 µM | 1.78 µM | – |
| O=S1(=O)c2ccccc2-c2nccc3ccnc1c23 | – | – | inactive |
| O=C(O)CSc1nnc(COc2ccccc2)n1-c1ccccc1 | > 741 µM | 407 µM | – |
| C=CC1(c2ccc3ccccc3c2)OCC(CC)O1 (configuration not stated) | > 200 µM | 87.1 µM | – |
| Nc1cc(S(=O)(=O)O)c(O)c2c1C(=O)c1c(O)c(S(=O)(=O)O)cc(N)c1C2=O | – | – | inactive |
| CC(=Nc1ccccc1S)c1c(O)ccc2c(C)cc(=O)oc12 | > 11.5 µM | > 11.5 µM | – |
| Cc1c(N=Nc2ccc(Cl)cc2)c(C)n(C2OC(CO)C(O)C(O)C2O)c(=S)c1C#N (configuration not stated) | > 200 µM | 34.7 µM | – |

| Compound | EC50 | IC50 | outcome |
| --- | --- | --- | --- |
| COc1ccc(C2OC(=O)c3ccc4ccccc4c32)c(C)c1 (configuration not stated) | > 44.7 µM | 24.5 µM | – |
| O=C1CC(c2ccc(Cl)cc2)=Nc2ccccc2N1 | 6.31 µM | 95.5 µM | – |
| COC(=O)C(Cc1c[nH]c2ccccc12)NP(=O)(O)OCC1OC(n2cc(F)c(=O)[nH]c2=O)CC1O (configuration not stated) | > 200 µM | > 200 µM | – |
| CCOC(=O)C1(C(=O)OCC)CC(=O)[C@@]2(C1)OCC[C@H]1OC(=O)C[C@H]12 | > 200 µM | > 200 µM | – |
| CC1(C)C2CCC1(C)C(Cl)([N+](=O)[O-])C2 (configuration not stated) | – | – | inactive |
| O=C(Nc1ccc(Cl)cc1)C(=O)C1=C(O)c2ccccc2OC1 | > 102 µM | > 102 µM | – |
| O=S(=O)(c1ccccc1)C1CN2OC1(S(=O)(=O)c1ccccc1)CC2c1ccc(Br)cc1 (configuration not stated) | – | – | inactive |
| N#CCCN(CCC#N)c1ccc(/C=C2\CC(O)(c3ccccc3)N(c3ccc(Cl)cc3)C2=O)cc1 (configuration not stated) | > 5.5 µM | > 5.5 µM | – |
| c1cc2nnc1SCCSCCSCCSc1ccc(nn1)SCCSCCSCCS2 | > 200 µM | > 200 µM | – |
| COC(=O)C1=C(O)C(C(=O)OC)C2(C3CC=CC3)C(C(=O)OC)=C(O)C(C(=O)OC)C12 (configuration not stated) | > 214 µM | > 214 µM | – |
| NC1CCCC2CCC(N)C12 (configuration not stated) | > 200 µM | 9.55 µM | – |
| CC(NC(=O)C(N)CC(=O)O)NC(=O)N1CCCC1 (configuration not stated) | > 200 µM | > 200 µM | – |
| CC#N.CC#N.COC(=O)[C@@H]1CN(C(=O)CCc2ccccc2)C(=O)[N-]1.COC(=O)[C@@H]1CN(C(=O)CCc2ccccc2)C(=O)[N-]1.COC(=O)[C@@H]1CN(C(=O)CCc2ccccc2)C(=O)[N-]1.COC(=O)[C@@H]1CN(C(=O)CCc2ccccc2)C(=O)[N-]1.[Rh+2].[Rh+2] | > 200 µM | 4.37 µM | – |
| O=c1c2ccccc2nc2n1-c1ccccc1SC2 | > 97.7 µM | > 97.7 µM | – |
| COC(=O)C1ON(C(=O)c2ccccc2)C(C)C2OC12 (configuration not stated) | > 324 µM | > 324 µM | – |
| c1ccc(C2=NOC3(c4ccccc4)SC4CCCCC4CN23)cc1 (configuration not stated) | > 10.7 µM | > 10.7 µM | – |
| CCOC(=O)C(NC(=O)CC(C)C)(Nc1ccc(C(F)(F)F)cc1)C(F)(F)F (configuration not stated) | > 200 µM | 56.2 µM | – |
| CCc1cc2c(oc3c4ccccc4ccc23)c(=O)[nH]1 | > 200 µM | > 200 µM | – |
| N=C1SCc2c1sc1ccccc21 | > 56.2 µM | 28.8 µM | – |
| Cn1cc2ccccc2c1-c1nc(F)nc(F)n1 | > 15.1 µM | > 15.1 µM | – |
| O=C(O)c1c(F)c(F)c(S)c(F)c1F | 17.8 µM | > 200 µM | – |
| c1c2c(cc(-n3nnc4c3CCCCCC4)c1-n1nnc3c1CCCCCC3)CCCCCC2 | > 21.9 µM | > 21.9 µM | – |

| Compound | EC50 | IC50 | outcome |
| --- | --- | --- | --- |
| N=C(c1ccccc1)N1CCCCC1 | – | – | inactive |
| Cc1ccc(/C=C2\CCCCCC2=O)cc1 | > 200 µM | 182 µM | – |
| CC1=NN(c2ccccc2)C(=O)C1=C1SCCCS1 | > 46.8 µM | > 46.8 µM | – |
| CCc1nc2ccc(N=NN(C)C)cc2[nH]1 | 85.1 µM | 107 µM | – |
| CC1(Br)C(=O)NC(=O)N(C2C=CC(CO)O2)C1N=[N+]=[N-] (configuration not stated) | 0.724 µM | 7.24 µM | – |
| CCCCCCCCCCCCCCCCOC1OC(CS(=O)(=O)S(=O)(=O)CC2OC(OCCCCCCCCCCCCCCCC)C(O)C(O)C2O)C(O)C(O)C1O (configuration not stated) | > 7.94 µM | – | – |
| NC(=O)C(=CNC(=S)Nc1cccc(C(F)(F)F)c1)C(N)=O | > 200 µM | > 200 µM | – |
| OCc1ccc[n+](CCc2c[nH]c3ccccc23)c1 | > 759 µM | 316 µM | – |
| CCCCCCCC1(N=[N+]=[N-])C(=O)c2ccccc2N(C)C1=O (configuration not stated) | 21.9 µM | 110 µM | – |
| C/C(=C/CNc1ncnc2c1ncn2CCC(=O)O)CO | > 200 µM | > 200 µM | – |
| CC(=O)OCC(C)C1=C(O)C(=O)C2(C)C/C=C(/C)CC/C=C(\C)CCC(O)C(C)CCC12 (configuration not stated) | > 200 µM | 11.5 µM | – |
| CCOC(=O)C1=CC(C)(C(=O)OCC)Nc2c(nc(OC)[nH]c2=O)N1 (configuration not stated) | > 200 µM | > 200 µM | – |
| CSCCOC(=O)C(=[N+]=[N-])c1ccc([N+](=O)[O-])cc1 | – | – | inactive |
| COC(=O)c1ccccc1C1CN=NC12Cc1ccccc1C2=O (configuration not stated) | > 200 µM | 120 µM | – |
| O=C1/C(=C/c2cccc(F)c2)CCc2ccccc21 | > 14.8 µM | > 14.8 µM | – |
| C/C(=C/C(=O)Nn1c(Cc2ccccc2)n[nH]c1=O)C(=O)O | > 200 µM | > 200 µM | – |
| COC(=O)c1c(CC(Cc2ccc3c(c2)CCCC3)C(=O)OC)ccc2c1CCCC2 (configuration not stated) | > 200 µM | 95.5 µM | – |
| CC1CC(C)(C)S(=O)(=O)O1 (configuration not stated) | > 200 µM | > 200 µM | – |
| c1ccc(N=c2sc3ccccc3nc2Nc2ccccc2)cc1 | > 200 µM | 123 µM | – |
| CC[C@H](OCc1ccccc1)/C(C)=C/C[C@@H](C)CO | > 27.5 µM | > 27.5 µM | – |
| O=C1/C(=C\c2ccccc2)C2/C(=C\c3ccccc3)C(=O)/C(=C\c3ccccc3)C2/C1=C\c1ccccc1 (configuration not stated) | – | – | inactive |
